35 compounds from US8163935B2, “Fused heterocyclic compounds” (Takeda Pharmaceutical Company Limited, priority 2005, dated 2012) can be followed below.

In general, melting point refers to the temperature of the solid-liquid transition. `CCCC(CCC)c1ccc(Cl)c2nc(Oc3c(C)cc(C)cc3C)n(C)c12` [Example 124, 4-Chloro-2-(mesityloxy)-1-methyl-7-(1-propylbutyl)-1H-benzimidazole] returned a melting point of 165 to 167 °C.
As for `CCC(CC)c1ccc(Cl)c2nc(Oc3c(C)cc(Cl)cc3C)n(C)c12` [Example 125, 4-Chloro-2-(4-chloro-2,6-dimethylphenoxy)-7-(1-ethylpropyl)-1-methyl-1H-benzimidazole], the figure is 168 to 169 °C.
`CCC(CC)c1ccc(Cl)c2nc(Oc3c(OC)cc(C)cc3OC)n(C)c12` [Example 126, 4-Chloro-2-(2,6-dimethoxy-4-methylphenoxy)-7-(1-ethylpropyl)-1-methyl-1H-benzimidazole] showed a melting point of 161 to 162 °C.
As for `CCCC(CCC)c1ccc(Cl)c2nc(Oc3ccc(Cl)cc3Cl)n(C)c12` [Example 127, 4-Chloro-2-(2,4-dichlorophenoxy)-1-methyl-7-(1-propylbutyl)-1H-benzimidazole], the figure is 87 to 88 °C.
As for `CCCC(CCC)c1ccc(Cl)c2nc(Oc3ccc(Br)cc3Cl)n(C)c12` [Example 128, 2-(4-Bromo-2-chlorophenoxy)-4-chloro-1-methyl-7-(1-propylbutyl)-1H-benzimidazole], the figure is 97 to 99 °C.
Compound `CCCC(CCC)c1ccc(Cl)c2nc(Oc3c(C)cc(Cl)cc3Cl)n(C)c12` [Example 129, 4-Chloro-2-(2,4-dichloro-6-methylphenoxy)-1-methyl-7-(1-propylbutyl)-1H-benzimidazole] yielded a melting point of 148 to 150 °C.
As for `CCCC(CCC)c1ccc(Cl)c2nc(Oc3c(C)cc(Cl)cc3C)n(C)c12` [Example 130, 4-Chloro-2-(4-chloro-2,6-dimethylphenoxy)-1-methyl-7-(1-propylbutyl)-1H-benzimidazole], the figure is 160 to 162 °C; as for `CCCC(CCC)c1ccc(Cl)c2nc(Oc3c(C)cc(Br)cc3C)n(C)c12` [Example 131, 2-(4-Bromo-2,6-dimethylphenoxy)-4-chloro-1-methyl-7-(1-propylbutyl)-1H-benzimidazole], 155 to 157 °C.
The figure for `CCCC(CCC)c1ccc(Cl)c2nc(Oc3c(Cl)cc(Cl)cc3Cl)n(C)c12` [Example 132, 4-Chloro-1-methyl-7-(1-propylbutyl)-2-(2,4,6-trichlorophenoxy)-1H-benzimidazole] is 148 to 150 °C; for `CCCC(CCC)c1ccc(Cl)c2nc(Oc3c(OC)cc(C)cc3OC)n(C)c12` [Example 133, 4-Chloro-2-(2,6-dimethoxy-4-methylphenoxy)-1-methyl-7-(1-propylbutyl)-1H-benzimidazole] it is 203 to 205 °C.
As for `CCCC(CCC)c1ccc(Cl)c2nc(Oc3ccc4c5c3CCN5C(=O)CC4)n(C)c12` [Example 134, 9-{[4-Chloro-1-methyl-7-(1-propylbutyl)-1H-benzimidazol-2-yl]oxy}-1,2,5,6-tetrahydro-4H-pyrrolo[3,2,1-ij]quinolin-4-one], the figure is 150 to 152 °C; as for `CCC(CC)c1ccc(Cl)c2nc(Oc3ccc(Cl)cc3Br)n(C)c12` [Example 135, 2-(2-Bromo-4-chlorophenoxy)-4-chloro-7-(1-ethylpropyl)-1-methyl-1H-benzimidazole], 114 to 115 °C; as for `CCC(CC)c1cc(Br)cc2nc(Oc3c(C)cc(Cl)cc3C)n(C)c12` [Example 136, 5-Bromo-2-(4-chloro-2,6-dimethylphenoxy)-7-(1-ethylpropyl)-1-methyl-1H-benzimidazole], 214 to 216 °C.
Regarding `CCC(CC)c1ccc(Cl)c2nc(Oc3c(C)cc(Br)cc3C)n(C)c12` [Example 137, 2-(4-Bromo-2,6-dimethylphenoxy)-4-chloro-7-(1-ethylpropyl)-1-methyl-1H-benzimidazole], the melting point fell in the range of 197 to 198 °C.
As for `CCC(CC)c1ccc(Cl)c2nc(Oc3c(Cl)cc(Cl)cc3Cl)n(C)c12` [Example 138, 4-Chloro-7-(1-ethylpropyl)-1-methyl-2-(2,4,6-trichlorophenoxy)-1H-benzimidazole], the figure is 155 to 157 °C; as for `CCC(CC)c1ccc(Cl)c2nc(Oc3c(OC)cc(C)nc3C)n(C)c12` [Example 139, 4-Chloro-7-(1-ethylpropyl)-2-[(4-methoxy-2,6-dimethylpyridin-3-yl)oxy]-1-methyl-1H-benzimidazole], 183 to 184 °C.
`CCC(CC)c1ccc(Cl)c2nc(Oc3c(Cl)cc(OC(F)(F)F)cc3Cl)n(C)c12` [Example 140, 4-Chloro-2-[2,6-dichloro-4-(trifluoromethoxy)phenoxy]-7-(1-ethylpropyl)-1-methyl-1H-benzimidazole] had a melting point of 145 to 147 °C.
Regarding `CCC(CC)c1ccc(Cl)c2nc(Oc3c(N(C)C)cc(C)nc3C)n(C)c12` [Example 141, 3-{[4-Chloro-7-(1-ethylpropyl)-1-methyl-1H-benzimidazol-2-yl]oxy}-N,N,2,6-tetramethylpyridin-4-amine], the melting point lay within 175 to 177 °C.
The figure for `CCC(CC)c1ccc(Cl)c2nc(Oc3c(Cl)cc(N(C)C)cc3Cl)n(C)c12` [Example 142, 3,5-Dichloro-4-{[4-chloro-7-(1-ethylpropyl)-1-methyl-1H-benzimidazol-2-yl]oxy}-N,N-dimethylaniline] is 200 to 202 °C; for `CCC(CC)c1ccc(Cl)c2nc(Oc3c(Cl)cc(Cl)cc3C(=O)N(C)C)n(C)c12` [Example 143, 3,5-Dichloro-2-{[4-chloro-7-(1-ethylpropyl)-1-methyl-1H-benzimidazol-2-yl]oxy}-N,N-dimethylbenzamide] it is 141 to 143 °C.
The figure for `CCC(CC)c1ccc(Cl)c2nc(Oc3c(C)cc(Cl)cc3OC)n(C)c12` [Example 144, 4-Chloro-2-(4-chloro-2-methoxy-6-methylphenoxy)-7-(1-ethyl-1-propyl)-1-methyl-1H-benzimidazole] is 165 to 167 °C; for `CCC(CC)c1ccc(OC)c2nc(Oc3ccc(Cl)cc3Br)n(C)c12` [Example 146, 2-(2-Bromo-4-chlorophenoxy)-7-(1-ethylpropyl)-4-methoxy-1-methyl-1H-benzimidazole] it is 106 to 107 °C; for `CCC(CC)c1ccc(O)c2nc(Oc3ccc(Cl)cc3Br)n(C)c12` [Example 147, 2-(2-Bromo-4-chlorophenoxy)-7-(1-ethylpropyl)-1-methyl-1H-benzimidazol-4-ol] it is 175 to 177 °C.
On to `CCC(CC)c1ccc(-c2ccco2)c2nc(Oc3ccc(Cl)cc3Br)n(C)c12` [Example 149, 2-(2-Bromo-4-chlorophenoxy)-7-(1-ethylpropyl)-4-(2-furyl)-1-methyl-1H-benzimidazole], for which the melting point is 159 to 162 °C.
As for `CCC(CC)c1ccc(C#N)c2nc(Oc3ccc(Cl)cc3Br)n(C)c12` [Example 150, 2-(2-Bromo-4-chlorophenoxy)-7-(1-ethylpropyl)-1-methyl-1H-benzimidazole-4-carbonitrile], the figure is 136 to 137 °C; as for `CCC(CC)c1ccc(C#N)c2nc(Oc3c(C)cc(Cl)cc3Cl)n(C)c12` [Example 151, 2-(2,4-Dichloro-6-methylphenoxy)-7-(1-ethylpropyl)-1-methyl-1H-benzimidazole-4-carbonitrile], 192 °C.
The figure for `CCC(CC)c1ccc(C#N)c2nc(Nc3c(C)cc(Cl)cc3OC)n(C)c12` [Example 152, 2-[(4-Chloro-2-methoxy-6-methylphenyl)amino]-7-(1-ethylpropyl)-1-methyl-1H-benzimidazole-4-carbonitrile] is 223 to 225 °C; for `CCC(CC)c1ccc(C(=O)OC)c2nc(Oc3c(C)cc(Cl)cc3Cl)n(C)c12` [Example 153, Methyl 2-(2,4-dichloro-6-methylphenoxy)-7-(1-ethylpropyl)-1-methyl-1H-benzimidazole-4-carboxylate] it is 177 to 178 °C; for `CCC(CC)c1ccc(CO)c2nc(Oc3c(C)cc(Cl)cc3Cl)n(C)c12` [Example 154, [2-(2,4-Dichloro-6-methylphenoxy)-7-(1-ethylpropyl)-1-methyl-1H-benzimidazol-4-yl]methanol] it is 141 to 143 °C.
Compound `CCC(CC)c1ccc(CN2CCCC2)c2nc(Oc3c(C)cc(Cl)cc3Cl)n(C)c12` [Example 156, 2-(2,4-Dichloro-6-methylphenoxy)-7-(1-ethylpropyl)-1-methyl-4-(pyrrolidin-1-ylmethyl)-1H-benzimidazole] displayed a melting point of 107 to 108 °C.
`CCC(CC)c1ccc(C(F)(F)F)c2nc(Nc3c(C)cc(Cl)cc3OC)n(C)c12` [Example 158, N-(4-Chloro-2-methoxy-6-methylphenyl)-7-(1-ethylpropyl)-1-methyl-4-(trifluoromethyl)-1H-benzimidazol-2-amine] gave a melting point of 187 to 188 °C.
`CCC(CC)c1ccc(C(F)(F)F)c2nc(Nc3ccc(Cl)cc3Br)n(C)c12` [Example 159, N-(2-Bromo-4-chlorophenyl)-7-(1-ethylpropyl)-1-methyl-4-(trifluoromethyl)-1H-benzimidazol-2-amine] had a melting point of 151 to 152 °C.
As for `CCC(CC)c1ccc(C(F)(F)F)c2nc(Oc3c(C)cc(Cl)cc3Cl)n(C)c12` [Example 160, 2-(2,4-Dichloro-6-methylphenoxy)-7-(1-ethylpropyl)-1-methyl-4-(trifluoromethyl)-1H-benzimidazole], the figure is 149 to 151 °C; as for `CCC(CC)c1ccc(C(F)(F)F)c2nc(Oc3ccc(Cl)cc3Br)n(C)c12` [Example 161, 2-(2-Bromo-4-chlorophenoxy)-7-(1-ethylpropyl)-1-methyl-4-(trifluoromethyl)-1H-benzimidazole], 119 to 120 °C; as for `CCc1cc(CC)n(-c2cccc3nc(Oc4c(C)cc(Cl)cc4Cl)n(C)c23)n1` [Example 162, 2-(2,4-Dichloro-6-methylphenoxy)-7-(3,5-diethyl-1H-pyrazol-1-yl)-1-methyl-1H-benzimidazole], 115 to 119 °C.
